The target of this assay is endogenous cellular BACE2 in the Ins1e rat cell line (Rattus norvegicus (Rat), UniProt Q6IE75). As to the kind of experiment: Assay for BACE inhibition by measuring cellular TMEM27 cleavage (ELISA of shed hTMEM27 from INS-TMEM27 cells). In kind it is cell-based. The settings on record: assay a): cellular TMEM27 cleavage, INS-TMEM27 cells (superscript a). The text has this:
a) Assay for BACE Inhibition by Measuring Cellular TMEM27 Cleavage:
The assay uses the principle of inhibition of human TMEM27 cleavage by endogenous cellular BACE2 in the Ins1e rat cell line and shedding from the cell surface into the culture medium, followed by detection in an ELISA assay. Inhibition of BACE2 prevents the cleavage and shedding in a dose-dependent manner.
The stable cell line “INS-TMEM27” represents an INS1e-derived cell line with inducible expression (using the TetOn system) of full-length hTMEM27 in a doxycycline-dependent manner. The cells are cultured throughout the experiment in RPMI1640+Glutamax (Invitrogen) Penicillin/Streptomycin, 10% Fetal bovine serum, […], […], 100 micrograms/ml G418 and 100 microgram/ml hygromycin and are grown inadherent culture at 37° C. in a standard CO2 cell culture incubator.
INS-TMEM27 cells are seeded in 96-well plates. After 2 days in culture, BACE2 inhibitor is added in a range of concentrations as required by the assay and after a further two hours, doxycycline is added to a final concentration of 500 ng/ml. The cells are incubated for a further 46 hours and the supernatant harvested for detection of shed TMEM27.
An ELISA assay (using a pair of mouse anti-human-TMEM27 antibodies, raised against the extracellular domain of TMEM27) is used for detection of TMEM27 in the culture medium. An EC50 for BACE2 inhibition is calculated using the ELISA readout for each inhibitor concentration with standard curve-fitting software such as XLFit for the Excel spreadsheet program.

Structures can show the parent of a compound that is named as a salt.

Broadly, the IC50 is the concentration that inhibits the measured activity by half.

endogenous cellular BACE2 in the Ins1e rat cell line, sequence (Q6IE75 63-514): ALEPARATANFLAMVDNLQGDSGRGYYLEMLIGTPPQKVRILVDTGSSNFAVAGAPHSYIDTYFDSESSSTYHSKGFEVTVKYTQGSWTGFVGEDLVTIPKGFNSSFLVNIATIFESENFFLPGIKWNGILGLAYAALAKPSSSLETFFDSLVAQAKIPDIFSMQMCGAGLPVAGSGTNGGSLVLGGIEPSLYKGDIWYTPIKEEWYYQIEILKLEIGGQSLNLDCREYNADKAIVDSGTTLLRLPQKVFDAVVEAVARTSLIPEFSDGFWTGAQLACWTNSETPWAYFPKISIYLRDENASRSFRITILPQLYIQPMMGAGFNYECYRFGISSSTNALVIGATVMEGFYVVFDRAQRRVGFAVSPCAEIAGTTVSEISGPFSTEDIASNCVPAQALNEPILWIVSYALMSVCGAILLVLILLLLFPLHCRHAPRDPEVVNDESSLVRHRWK

Molecule `CN1C(=O)C(C)(C)[C@@](C)(c2cc(NC(=O)CC3CC3)ccc2F)N=C1N` [Example 28, (S)—N-(3-(2-amino-1,4,5,5-tetramethyl-6-oxo-1,4,5,6-tetrahydropyrimidin-4-yl)-4-fluorophenyl)-2-cyclopropylacetamide] came in with an IC50 of 0.043 µM.
Take `CN1C(=O)C[C@@](C)(c2cccc(NC(=O)C3(C(F)(F)F)CC3)c2)N=C1N` [Example 12, 1-Trifluoromethyl-cyclopropanecarboxylic acid [3-((S)-2-amino-1,4-dimethyl-6-oxo-1,4,5,6-tetrahydro-pyrimidin-4-yl)-phenyl]-amide]: the IC50 amounted to 0.023 µM.
`CCOC(=O)[C@H]1[C@@H]2C[C@@H](O)C(Nc3ccc(F)c([C@@]4(C)N=C(N)N(C)C(=O)C4(C)C)c3)[C@@H]21` (stereo partly drawn) [Example 100, (1S,3R,5R,6S)-ethyl 2-(3-((S)-2-amino-1,4,5,5-tetramethyl-6-oxo-1,4,5,6-tetrahydropyrimidin-4-yl)-4-fluorophenylamino)-3-hydroxybicyclo[3.1.0]hexane-6-carboxylate] returned an IC50 of 0.001 µM.
Molecule `CN1C(=O)C(C)(C)[C@@](C)(c2cc(NCc3ccon3)ccc2F)N=C1N` [Example 86, (S)-2-Amino-6-{2-fluoro-5-[(isoxazol-3-ylmethyl)-amino]phenyl}-3,5,5,6-tetramethyl-5,6-dihydro-3H-pyrimidin-4-one] displayed an IC50 of 0.236 µM.
In the case of `COc1ccccc1Nc1ccc(F)c([C@@]2(C)N=C(N)N(C)C(=O)C2(C)C)c1` [Example 56, (S)-2-Amino-6-(2-fluoro-5-(2-methoxyphenylamino)phenyl)-3,5,5,6-tetramethyl-5,6-dihydropyrimidin-4(3H)-one], half-maximal inhibition (IC50) required 0.015 µM.
In the case of `CN1C(=O)C(C)(C)[C@@](C)(c2cc(NC3CC(C)(C)CC3O)ccc2F)N=C1N` (stereo partly drawn) [Example 158, (S)-2-Amino-6-[2-fluoro-5-(2-hydroxy-4,4-dimethyl-cyclopentylamino)-phenyl]-3,5,5,6-tetramethyl-5,6-dihydro-3H-pyrimidin-4-one], inhibition was half-maximal at 0.298 µM (IC50).
The molecule `CN1C(=O)C(C)(C)[C@@](C)(c2cccc(NC(=O)C3(C#N)CC3)c2)N=C1N` [Example 1, 1-Cyano-cyclopropanecarboxylic acid [3-((R)-2-amino-1,4,5,5-tetramethyl-6-oxo-1,4,5,6-tetrahydro-pyrimidin-4-yl)-phenyl]-amide] had an IC50 of 0.057 µM.
Molecule `CN1C(=O)C(C)(C)[C@@](C)(c2cc(NCc3cc[nH]n3)ccc2F)N=C1N` [Example 61, (S)-2-Amino-6-{2-fluoro-5-[(1H-pyrazol-3-ylmethyl)-amino]-phenyl}-3,5,5,6-tetramethyl-5,6-dihydro-3H-pyrimidin-4-one] showed an IC50 of 0.059 µM.
As to `CN1C(=O)C(C)(C)[C@@](C)(c2cc(NC(=O)C(C)(O)c3ccc(Cl)cc3)ccc2F)N=C1N` (stereo partly drawn) [Example 141, N-[3-((S)-2-Amino-1,4,5,5-tetramethyl-6-oxo-1,4,5,6-tetrahydro-pyrimidin-4-yl)-4-fluoro-phenyl]-2-(4-chloro-phenyl)-2-hydroxy-propionamide], the IC50 turned out to be 0.332 µM.
`CN1C(=O)C(C)(C)[C@@](C)(c2cc(NC3CCC(c4ccccc4)C3)ccc2F)N=C1N` (stereo partly drawn) [Example 33, (6S)-2-Amino-6-(2-fluoro-5-(3-phenylcyclopentylamino)phenyl)-3,5,5,6-tetramethyl-5,6-dihydropyrimidin-4(3H)-one] gave an IC50 of 0.029 µM.
Molecule `CN1C(=O)C(C)(C)[C@@](C)(c2cc(Nc3ccccc3OC(F)F)ccc2F)N=C1N` [Example 73, (S)-2-Amino-6-(5-(2-(difluoromethoxy)phenylamino)-2-fluorophenyl)-3,5,5,6-tetramethyl-5,6-dihydropyrimidin-4(3H)-one] showed an IC50 of 0.135 µM.
In turn, `CC(Nc1ccc(F)c([C@@]2(C)N=C(N)N(C)C(=O)C2(C)C)c1)c1ccn[nH]1` (stereo partly drawn) [Example 111, (S)-2-Amino-6-{2-fluoro-5-[1-(2H-pyrazol-3-yl)-ethylamino]-phenyl}-3,5,5,6-tetramethyl-5,6-dihydro-3H-pyrimidin-4-one] came in with an IC50 of 0.046 µM.
On to `CN1C(=O)C(C)(C)[C@@](C)(c2cc(NC(=O)C(O)C(F)(F)F)ccc2F)N=C1N` (stereo partly drawn) [Example 8, N-[3-((S)-2-Amino-1,4,5,5-tetramethyl-6-oxo-1,4,5,6-tetrahydro-pyrimidin-4-yl)-4-fluoro-phenyl]-3,3,3-trifluoro-2-hydroxy-propionamide], for which half-maximal inhibition (IC50) required 0.009 µM.
On to `CN1C(=O)C(C)(C)[C@@](C)(c2cc(Nc3cccnc3)ccc2F)N=C1N` [Example 138, (S)-2-Amino-6-(2-fluoro-5-(pyridin-3-ylamino)phenyl)-3,5,5,6-tetramethyl-5,6-dihydropyrimidin-4(3H)-one], for which it took 0.5 µM to reach half-maximal inhibition (IC50).
As for `CN1C(=O)C(C)(C)[C@@](C)(c2cc(NC[C@@H]3C[C@H]3c3ccccc3)ccc2F)N=C1N` [Example 97, (S)-2-Amino-6-{2-fluoro-5-[((1R,2R)-2-phenyl-cyclopropylmethyl)-amino]-phenyl}-3,5,5,6-tetramethyl-5,6-dihydro-3H-pyrimidin-4-one], the figure is 0.242 µM; as for `CN1C(=O)C(C)(C)[C@@](C)(c2cc(NC(=O)C3(O)CC3)ccc2F)N=C1N` [Example 134, 1-Hydroxy-cyclopropanecarboxylic acid [3-((S)-2-amino-1,4,5,5-tetramethyl-6-oxo-1,4,5,6-tetrahydro-pyrimidin-4-yl)-4-fluoro-phenyl]-amide], 0.734 µM.
`CN1C(=O)C(C)(C)[C@@](C)(c2cc(NC(=O)C3CC3(C)C)ccc2F)N=C1N` (stereo partly drawn) [Example 19, N-(3-((S)-2-Amino-1,4,5,5-tetramethyl-6-oxo-1,4,5,6-tetrahydropyrimidin-4-yl)-4-fluorophenyl)-2,2-dimethylcyclopropanecarboxamide] yielded an IC50 of 0.074 µM.
Molecule `CN1C(=O)C(C)(C)[C@@](C)(c2cc(NC(=O)CC(F)(F)F)ccc2F)N=C1N` [Example 3, N-[3-((S)-2-Amino-1,4,5,5-tetramethyl-6-oxo-1,4,5,6-tetrahydro-pyrimidin-4-yl)-4-fluoro-phenyl]-3,3,3-trifluoro-propionamide] returned an IC50 of 0.011 µM. This IC50 is about 6.7-fold lower than that of the molecule before.
In the case of `CN1C(=O)C(C)(C)[C@@](C)(c2cc(Nc3ccccc3)ccc2F)N=C1N` [Example 48, (S)-2-amino-6-(2-fluoro-5-(phenylamino)phenyl)-3,5,5,6-tetramethyl-5,6-dihydropyrimidin-4(3H)-one], the IC50 worked out at 0.042 µM.
As for `CN1C(=O)C(C)(C)[C@@](C)(c2cc(NCC(F)(F)F)ccc2F)N=C1N` [Example 75, (S)-2-Amino-6-(2-fluoro-5-(2,2,2-trifluoroethylamino)phenyl)-3,5,5,6-tetramethyl-5,6-dihydropyrimidin-4(3H)-one], the IC50 turned out to be 0.012 µM.
`Cc1ncsc1CNc1ccc(F)c([C@@]2(C)N=C(N)N(C)C(=O)C2(C)C)c1` [Example 78, (S)-2-Amino-6-{2-fluoro-5-[(4-methyl-thiazol-5-ylmethyl)-amino]-phenyl}-3,5,5,6-tetramethyl-5,6-dihydro-3H-pyrimidin-4-one]: it took 0.156 µM to reach half-maximal inhibition (IC50). This IC50 lies about 13-fold higher than the previous one.
In turn, `COC(=O)CC1CCC(Nc2ccc(F)c([C@@]3(C)N=C(N)N(C)C(=O)C3(C)C)c2)C1` (stereo partly drawn) [Example 95, {3-[3-((S)-2-Amino-1,4,5,5-tetramethyl-6-oxo-1,4,5,6-tetrahydro-pyrimidin-4-yl)-4-fluoro-phenylamino]-cyclopentyl}-acetic acid methyl ester] came in with an IC50 of 0.406 µM. This IC50 is about 2.6-fold higher than that of the molecule before.
`COc1ccc(F)cc1Nc1ccc(F)c([C@@]2(C)N=C(N)N(C)C(=O)C2(C)C)c1` [Example 84, (S)-2-Amino-6-(2-fluoro-5-(5-fluoro-2-methoxyphenylamino)phenyl)-3,5,5,6-tetramethyl-5,6-dihydropyrimidin-4(3H)-one] gave an IC50 of 0.069 µM. Compared with the last molecule, the IC50 is about 5.9-fold lower.
In turn, `CN1C(=O)C(C)(C)[C@@](C)(c2cc(NC3CC4CC3CC4O)ccc2F)N=C1N` (stereo partly drawn) [Example 101, (6S)-2-Amino-6-(2-fluoro-5-(5-hydroxybicyclo[2.2.1]heptan-2-ylamino)phenyl)-3,5,5,6-tetramethyl-5,6-dihydropyrimidin-4(3H)-one] had an IC50 of 0.001 µM.
`COc1ccc(C(F)(F)F)cc1Nc1ccc(F)c([C@@]2(C)N=C(N)N(C)C(=O)C2(C)C)c1` [Example 121, (S)-2-Amino-6-(2-fluoro-5-(2-methoxy-5-(trifluoromethyl)phenylamino)phenyl)-3,5,5,6-tetramethyl-5,6-dihydropyrimidin-4(3H)-one] yielded an IC50 of 0.009 µM.
Consider `CN1C(=O)C(C)(C)[C@@](C)(c2cc(NC(=O)[C@](C)(O)C(F)(F)F)ccc2F)N=C1N` [Example 143, (S)—N-(3-((S)-2-amino-1,4,5,5-tetramethyl-6-oxo-1,4,5,6-tetrahydropyrimidin-4-yl)-4-fluorophenyl)-3,3,3-trifluoro-2-hydroxy-2-methylpropanamide], for which the IC50 is 0.044 µM.
`CN1C(=O)C(C)(C)[C@@](C)(c2cc(Nc3ccn[nH]3)ccc2F)N=C1N` [Example 124, (S)-6-(5-(1H-Pyrazol-5-ylamino)-2-fluorophenyl)-2-amino-3,5,5,6-tetramethyl-5,6-dihydropyrimidin-4(3H)-one hydrochloride] returned an IC50 of 0.589 µM. Compared with the last molecule, the IC50 is about 13-fold higher.

For the origin of these results see patent publication US8815881B2 (Hoffmann-La Roche Inc., priority 2010, dated 2014).
